According to BindingDB's records for doi:10.1021/jm00079a011 (Kanebo, 1992):

Target: DNA gyrase (Escherichia coli)
Experiment: The inhibitory activity was measured for the supercoiling activity of DNA gyrase isolated from Escherichia coli K-12 C600.

Row | Compound | IC50
1 | NC1CCN(c2c(F)cc3c(=O)c(C(=O)O)c4scc5n4c3c2OC5)C1 (stereo unspecified) | 666 nM
2 | O=C(O)c1c(=O)c2cc(F)c(N3CCC(O)C3)c3c2n2c(csc12)CO3 (stereo unspecified) | 929 nM
3 | CC1COc2c(N3CCNCC3)c(F)cc3c(=O)c(C(=O)O)cn1c23 (stereo unspecified) | 1690 nM
4 | O=C(O)c1c(=O)c2cc(F)c(N3CCNCC3)c3c2n2c(csc12)CO3 | 452 nM

Continued, values first:

Row | IC50 | Compound
5 | 727 nM | CN1CCN(c2c(F)cc3c(=O)c(C(=O)O)c4scc5n4c3c2OC5)CC1
6 | 2580 nM | O=C(O)c1c(=O)c2cc(F)c(N3CCCC3)c3c2n2c(csc12)CO3
